Test results as given in publication PMC10515640, “Structure-Based Optimization of Covalent, Small-Molecule Stabilizers of the 14-3-3σ/ERα Protein–Protein Interaction from Nonselective Fragments” (Journal of the American Chemical Society, 2023).

Tests used:
14-3-3σ = target: T1, 14-3-3σ (Homo sapiens, UniProt P31947); experiment: Mass spectrometry dose response, compound binding to 14-3-3σ in the absence of peptide (apo); conditions: 100 nM compound, 100 nM 14-3-3σ
T1 construct: The 14-3-3 σ isoform (full-length for mass spectrometry and fluorescence anisotropy assays, ΔC for crystallography); made in house; host or cells: E. coli Rosetta 2(DE3)pLysS, pPROEX HTb vector
T1 sequence (P31947 1-248): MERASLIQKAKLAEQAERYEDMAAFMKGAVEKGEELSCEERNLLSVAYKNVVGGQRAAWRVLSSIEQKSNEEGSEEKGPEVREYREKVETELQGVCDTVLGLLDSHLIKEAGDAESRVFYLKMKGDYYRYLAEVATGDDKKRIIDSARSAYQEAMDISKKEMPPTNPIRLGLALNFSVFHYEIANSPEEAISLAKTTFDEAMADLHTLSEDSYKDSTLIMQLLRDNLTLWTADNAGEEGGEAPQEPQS
Source text: (§1) Two orthogonal assays were developed for screening. For the primary assay, mass spectrometry (MS) was used to monitor the formation of the covalent bond between the compound and the native cysteine (Cys38 on 14-3-3σ) (Figure 1D). The assay was first performed in the absence of peptide to determine binding to 14-3-3σ only (apo screening, D1) and then in the presence of both 14-3-3σ and the peptide as an indication of how much the peptide stabilized compound binding (D2). […] As a secondary assay, fluorescence anisotropy (FA) was used. In this case, compounds were titrated to mixtures of 14-3-3σ and FAM-labeled peptides. […] Thus, the two assays are highly complementary; the MS assay reports on compound binding and the FA assay reports on peptide binding. […]
(§2) Mass spectrometry dose response assays were performed on a Waters Acquity UPLC/ Xevo G2-XS Q-Tof mass spectrometer. A Waters UPLC Protein BEH-C4 Column (300 Å, 1.7 μm, 2.1 mm x 50 mm) was used to desalt the samples prior to application on the mass spectrometer. For 19-point MS dose responses, 50 mM compound stocks in DMSO were serially diluted in 3-fold increment in a master plate, then 1000 nl of the compounds were transferred in the assay plates. Master mixes containing 100 nM full-length wild type 14-3-3σ in the absence or presence of […]
(§3) Assay buffer was TRIS (10 mM, pH 8.0) and final volume per well was 50 μl, with final top concentration of compounds dose response series at 1 mM. The reaction mixtures were incubated for 1h at rt before subjected to MS. Four measurements (1h, 8h, 16h, 24h) were performed for time-course experiments. The injection volume for each sample was 6 μl. 24 μl of sample were needed for the time-course experiments, so the total volume in the assay plate was adjusted to 50 μl, to account for the dead volume in the injections. Data collection and automated processing followed a custom workflow, as previously described.1 z Plots were created using GraphPad Prism with the log(agonist) vs. response (variable slope, four parameters) fitting model. […]

14-3-3σ/C-RAF [1] = target: T2, 14-3-3σ/C-RAF (Homo sapiens, UniProt P31947); experiment: Fluorescence anisotropy compound titration, FAM-labeled C-RAF peptide; format: binding; conditions: 10 nM C-RAF-FAM labeled peptide, 5 µM 14-3-3σ, overnight incubation; read-out: EC50 value C-RAF (FA compound titration)
T2 construct: The 14-3-3 σ isoform (full-length for mass spectrometry and fluorescence anisotropy assays, ΔC for crystallography); made in house; host or cells: E. coli Rosetta 2(DE3)pLysS, pPROEX HTb vector
T2 sequence (P31947 1-248): T1 sequence (P31947 1-248)
Source text: as §1
(§4) diluted in buffer (10 mM HEPES, pH 7.5, 150 mM NaCl, 0.1% Tween20, 1 mg/mL Bovine Serum Albumin (BSA; Sigma-Aldrich). Final DMSO in the assay was always 1%. Dilution series of 14-3-3 proteins or compounds were made in […]
(§5) Compound titrations were made by titrating the compound in a 2-fold dilution series (starting at 500 or 1000 µM) to a mix of fluorescein-labeled peptide (10 nM) and 14-3-3σ (concentration at approximately the EC20 to EC30 value of the protein-peptide complex; 1 µM for ERα and 5 µM for C-RAF). Using the ~EC25 value makes the assay sensitive for measuring an increase in PPI formation. Fluorescence anisotropy measurements were performed directly and after overnight incubation at room temperature. […]
(§6) Wells containing only FAM-peptide were used to set as G-factor at 35 mP. Data reported are at endpoint. EC50 and apparent Kd values were obtained from fitting the data with a four-parameter logistic model (4PL) in GraphPad Prism 7 for Windows. Data was obtained and averaged based on either three (compound titrations) or two (protein titrations) independent experiments.

14-3-3σ/C-RAF [2] = target: T2, 14-3-3σ/C-RAF; experiment: Mass spectrometry dose response, compound binding to 14-3-3σ in the presence of C-RAF phosphopeptide; conditions: 100 nM compound, 100 nM 14-3-3σ, C-RAF peptide 18 µM
Source text: as §1, §2, §3

14-3-3σ/ERα [3] = target: T3, 14-3-3σ/ERα (Homo sapiens, UniProt P03372+P31947); experiment: Fluorescence anisotropy compound titration, FAM-labeled ERα peptide; format: binding; conditions: 10 nM ERα-FAM labeled peptide, 1 µM 14-3-3σ, overnight incubation (24 h); read-out: EC50 value ERα (FA compound titration)
T3 construct: The 14-3-3 σ isoform (full-length for mass spectrometry and fluorescence anisotropy assays, ΔC for crystallography); made in house; host or cells: E. coli Rosetta 2(DE3)pLysS, pPROEX HTb vector
Source text: as §1, §4, §5, §6

14-3-3σ/ERα [4] = target: T3, 14-3-3σ/ERα; experiment: Mass spectrometry dose response, compound binding to 14-3-3σ in the presence of ERα phosphopeptide; conditions: 100 nM compound, 100 nM 14-3-3σ, ERα-peptide 2 µM
Source text: as §1, §2, §3

| Structure (SMILES) | Percentage (%) bound of compound to 14-3-3σ, APO 1h (14-3-3σ) | Percentage (%) bound of compound to 14-3-3σ, APO 8h (14-3-3σ) | Percentage (%) bound of compound to 14-3-3σ, APO 16h (14-3-3σ) | Percentage (%) bound of compound to 14-3-3σ, APO 24h (14-3-3σ) | EC50 (14-3-3σ/C-RAF [1]) | Percentage (%) bound of compound to 14-3-3σ, CRAF 1h (14-3-3σ/C-RAF [2]) | Percentage (%) bound of compound to 14-3-3σ, CRAF 8h (14-3-3σ/C-RAF [2]) | Percentage (%) bound of compound to 14-3-3σ, CRAF 24h (14-3-3σ/C-RAF [2]; 24h) | Percentage (%) bound of compound to 14-3-3σ, CRAF 24h (14-3-3σ/C-RAF [2]; head prints 24h) | EC50 (14-3-3σ/ERα [3]) | Percentage (%) bound of compound to 14-3-3σ, ERα 1h (14-3-3σ/ERα [4]) | Percentage (%) bound of compound to 14-3-3σ, ERα 8h (14-3-3σ/ERα [4]) | Percentage (%) bound of compound to 14-3-3σ, ERα 16h (14-3-3σ/ERα [4]) | Percentage (%) bound of compound to 14-3-3σ, ERα 24h (14-3-3σ/ERα [4]) |
| --- | --- | --- | --- | --- | --- | --- | --- | --- | --- | --- | --- | --- | --- | --- |
| CC(C)(Nc1ccc(Cl)cc1)C(=O)N1CCC(CNC(=O)CCl)CC1 [compound 84] | 0% | 0% | 1.0% | 5.8% | > 150 µM | 0.8% | 1.0% | 3.3% | 2.9% | 55 ± 2 µM | 0.9% | 2.8% | 7.5% | 19.0% |
| O=C(CCl)NCC1CCN(C(=O)C2(Oc3ccc(Cl)cc3)CC2)CC1 [compound 93] | 0% | 0% | 0% | 0% | > 150 µM | 0.1% | 0.1% | 2.3% | 0.1% | 68 ± 2 µM | 0% | 0.9% | 1.1% | 1.7% |
| O=C(CCl)NCC1CCN(C(=O)C2(Nc3ccccc3)CCCC2)CC1 [compound 120] | 0% | 0% | 0% | 0% | > 150 µM | 0% | 0% | 0% | 0% | > 150 µM | 0% | 0% | 0% | 4.5% |

Now those with a lower EC50 (14-3-3σ/C-RAF [1]), led by results:

| Percentage (%) bound of compound to 14-3-3σ, APO 1h (14-3-3σ) | Percentage (%) bound of compound to 14-3-3σ, APO 8h (14-3-3σ) | Percentage (%) bound of compound to 14-3-3σ, APO 16h (14-3-3σ) | Percentage (%) bound of compound to 14-3-3σ, APO 24h (14-3-3σ) | EC50 (14-3-3σ/C-RAF [1]) | Percentage (%) bound of compound to 14-3-3σ, CRAF 1h (14-3-3σ/C-RAF [2]) | Percentage (%) bound of compound to 14-3-3σ, CRAF 8h (14-3-3σ/C-RAF [2]) | Percentage (%) bound of compound to 14-3-3σ, CRAF 24h (14-3-3σ/C-RAF [2]; 24h) | Percentage (%) bound of compound to 14-3-3σ, CRAF 24h (14-3-3σ/C-RAF [2]; head prints 24h) | EC50 (14-3-3σ/ERα [3]) | Percentage (%) bound of compound to 14-3-3σ, ERα 1h (14-3-3σ/ERα [4]) | Percentage (%) bound of compound to 14-3-3σ, ERα 8h (14-3-3σ/ERα [4]) | Percentage (%) bound of compound to 14-3-3σ, ERα 16h (14-3-3σ/ERα [4]) | Percentage (%) bound of compound to 14-3-3σ, ERα 24h (14-3-3σ/ERα [4]) | Structure (SMILES) |
| --- | --- | --- | --- | --- | --- | --- | --- | --- | --- | --- | --- | --- | --- | --- |
| 0% | 0% | 0% | 0% | 142 ± 40 µM | 1.0% | 1.0% | 18.9% | 7.1% | 9 ± 0.4 µM | 0.4% | 1.0% | 3.1% | 11.0% | CC(C)(Oc1ccc(Cl)cc1)C(=O)N1CCC(CCCNC(=O)CCl)CC1 [compound 29] |
| 0.3% | 0.4% | 0.8% | 5.9% | 101 ± 15 µM | 1.0% | 1.7% | 5.5% | 5.1% | 15 ± 1 µM | 1.0% | 2.5% | 5.8% | 21.3% | O=C(CCl)NCC1CCN(C(=O)C2(Nc3ccc(Cl)cc3)CC2)CC1 [compound 97] |
| 0% | 0.3% | 0.8% | 1.1% | 32 ± 8 µM | 10.7% | 21.4% | 47.3% | 33.7% | 15 ± 2 µM | 5.6% | 15.7% | 34.4% | 63.7% | O=C(CCl)NCC1CCN(C(=O)C2(Oc3ccc(Cl)cc3)CCCC2)CC1 [compound 117] |
| 0% | 1.0% | 1.0% | 2.5% | 18 ± 0.3 µM | 6.2% | 19.7% | 53.6% | 28.5% | 24 ± 2 µM | 1.9% | 5.3% | 10.9% | 21.0% | O=C(CCl)NCC1CCN(C(=O)C2(Oc3ccccc3)CCCC2)CC1 [compound 119] |
